The values that follow come from article PMC8003321, “5-Aryl-1-Arylideneamino-1H-Imidazole-2(3H)-Thiones: Synthesis and In Vitro Anticancer Evaluation” (Molecules, 2021).

Molecules are shown by their SMILES. A value given as a limit tells only on which side of the number the result lay.

The subject of one data set is MCF-7 cell line. The arrangement: method as in PMID 32757353. As to conditions: read-out: IC50 against MCF-7 cell line; cited from earlier work.
Data set [1] deals with colon carcinoma (HCT-116). The data set is described as follows: MTT cytotoxicity assay, HCT-116. In kind it is cell-based. As to conditions: 24 h treatment, mean of three experiments. The procedure: (§1) The effect of imidazole molecules 4a–e and 5 on the viability of three cancer cell lines were studied using the MTT assay. The cytotoxicity was assessed using Docetaxel (DOC) as a standard antitumor drug. The three cancer cell lines were MCF-7 (breast cancer cell line), colon carcinoma (HCT-116), and HepG2 (hepatocellular carcinoma cell line). […] Moreover, the safety of compounds 4d and 5 was assessed against a normal breast cell line (MCF-10A) using the MTT assay.
(§2) Antitumor activity of the newly prepared imidazole compounds 4a–e and 5 were carried out against MCF-7, HepG2, HCT-116, and MCF-10A using the MTT assay method. Cells at a density of 1 × 10^4 were seeded in 96-well plates at 37 °C for 48 h under 5% CO2. After incubation, the cells were treated with different concentrations of the prepared molecules and incubated for 24 h. MTT dye was added at the end of 24 h of drug treatment and incubated for 4 h at 37 °C. Next, 100 µL of dimethyl sulfoxide was added to each well to dissolve the purple formazan formed. The color intensity of the formazan product, which represents the growth condition of the cells, is quantified using an ELISA plate reader at 570 nm. The experimental conditions were carried out with at least three replicates and the experiments were repeated at least three times.

For data set [2], the system named is normal breast cell line (MCF-10A). The data set can be described thus: MTT cytotoxicity assay, normal breast cell line MCF-10A. In kind it is cell-based. To be noted: for IC50: Homo sapiens, MCF-10A, 24 h treatment. As for the experimental part: as §1, §2
Background: Tetrazolium assays rely on reduction of a dye to a coloured formazan, in cell work by metabolically active cells.

In data set [3] the test system is MCF-7 cells. The data set is described as follows: Cell cycle analysis by DNA flow cytometry. The data set is classed as cell-based. As to conditions: MCF-7, compound at its IC50, 48 h; for percentage of cells at pre-G1 phase: control 1.61%; for percentage of cell population at the G2/M phase: control 8.79%. As for the experimental part: Therefore, it can be concluded that compounds 4d and 5 inhibit the cell proliferation of MCF-7 cells via cell cycle arrest at the G2/M phase and induction of apoptosis (Figure 2).
MCF-7 cells (2 × 10^5/well) were harvested and washed twice in PBS. After that, cells were incubated at 37 °C and 5% CO2. The medium was replaced with DMSO (1% v/v) containing the tested compounds, then incubated for 48 h, washed twice in PBS, fixed with 70% ethanol, rinsed again with PBS, and then stained with DNA fluorochrome PI for 15 min at 37 °C. DNA content was analyzed by flow cytometry on a FACS Calibur flow cytometer (Becton and Dickinson, Heidelberg, Germany).
For orientation: Flow cytometry measures light scatter and fluorescence of single cells or particles in a stream.

Data set [4] concerns MCF-7 cells. The data set can be described thus: Annexin V-FITC/PI apoptosis induction analysis. The data set is classed as cell-based. As to conditions: MCF-7, compound at its IC50, 48 h; for percent of early apoptosis: lower right quadrant, control 0.43%; for percent of late apoptosis: upper right quadrant, control 0.23%. As for the experimental part:
Several imidazole molecules have been reported in the literature as apoptosis inducers in several tumor cell lines. To evaluate the mode of cell death induced by compounds 4d and 5, Annexin V/FITC and propidium iodide (PI) assays were performed. MCF-7 cells were treated with compounds 4d and 5 at their IC50 concentration dose value for 48 h.
Apoptosis in MCF-7 cells was investigated using fluorescent Annexin V-FITC/PI detection kit by flow cytometry assay. Briefly, MCF-7 cells (2 × 10^5) after incubation for 12 h. Cells were treated with compounds 4d and 5 at their IC50 concentration for 48 h, then the cells were harvested and stained with Annexin V-FITC/PI dye for 15 min in the dark at 37 °C. Flow cytometry analyses were performed using a FACS Calibur flow cytometer (Becton and Dickinson, Heidelberg, Germany).

For the next data set, the target named is T1, human VEGFR-2 (Homo sapiens, UniProt P35968).
T1 construct: purchased
T1 sequence (P35968 20-1356): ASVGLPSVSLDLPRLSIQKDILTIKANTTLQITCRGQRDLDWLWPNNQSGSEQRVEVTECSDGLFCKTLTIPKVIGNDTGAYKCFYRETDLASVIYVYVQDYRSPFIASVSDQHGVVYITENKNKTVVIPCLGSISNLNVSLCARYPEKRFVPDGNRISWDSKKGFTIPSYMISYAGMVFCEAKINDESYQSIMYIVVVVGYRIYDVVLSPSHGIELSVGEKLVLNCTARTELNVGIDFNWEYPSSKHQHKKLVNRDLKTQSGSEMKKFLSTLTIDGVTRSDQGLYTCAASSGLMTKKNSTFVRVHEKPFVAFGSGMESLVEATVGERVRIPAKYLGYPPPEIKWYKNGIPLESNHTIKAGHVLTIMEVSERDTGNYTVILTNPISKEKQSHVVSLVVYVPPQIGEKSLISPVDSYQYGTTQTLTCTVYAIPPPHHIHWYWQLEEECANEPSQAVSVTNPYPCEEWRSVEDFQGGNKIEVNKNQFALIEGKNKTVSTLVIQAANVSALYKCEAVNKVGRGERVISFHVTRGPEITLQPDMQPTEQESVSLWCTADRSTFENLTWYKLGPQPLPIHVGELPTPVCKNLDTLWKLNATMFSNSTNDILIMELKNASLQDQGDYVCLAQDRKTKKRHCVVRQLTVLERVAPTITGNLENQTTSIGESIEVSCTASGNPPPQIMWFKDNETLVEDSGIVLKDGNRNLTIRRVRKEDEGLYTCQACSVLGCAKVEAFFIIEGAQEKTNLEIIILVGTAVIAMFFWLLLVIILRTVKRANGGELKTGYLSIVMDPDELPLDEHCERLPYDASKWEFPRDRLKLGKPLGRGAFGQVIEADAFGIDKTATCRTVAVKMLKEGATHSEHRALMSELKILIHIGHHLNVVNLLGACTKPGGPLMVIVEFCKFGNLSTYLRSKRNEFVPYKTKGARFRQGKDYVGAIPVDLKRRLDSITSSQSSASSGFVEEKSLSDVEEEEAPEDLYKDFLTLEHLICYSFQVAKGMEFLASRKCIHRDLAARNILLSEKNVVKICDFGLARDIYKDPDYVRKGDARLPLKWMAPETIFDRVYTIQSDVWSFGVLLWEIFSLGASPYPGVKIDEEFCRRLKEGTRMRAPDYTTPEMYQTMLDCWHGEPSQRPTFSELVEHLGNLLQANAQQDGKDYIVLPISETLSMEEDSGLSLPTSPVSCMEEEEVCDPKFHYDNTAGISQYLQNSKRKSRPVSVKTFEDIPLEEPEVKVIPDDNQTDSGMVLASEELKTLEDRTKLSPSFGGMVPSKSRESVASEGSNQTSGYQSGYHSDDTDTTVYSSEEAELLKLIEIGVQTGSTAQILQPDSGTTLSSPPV
The data set can be described thus: In vitro VEGFR-2 kinase assay (ELISA). As to conditions: n = 3, read-out: IC50 against VEGFR-2 kinase (converted). The data set is classed as biochemical. The procedure: To investigate the possible molecular mechanism underlying the potent anticancer activity of compounds 4d and 5. Their inhibitory activity against VEGFR-2 kinase was determined using an ELISA assay.
A total of 100 µL of standard solution and tested molecules were pipetted into the 96-wells and VEGFR-2 was bound to the wells by the immobilized antibody. The wells were washed and biotinylated antihuman VEGFR-2 antibody was added. After washing away unbound biotinylated antibody, 100 µL of conjugated streptavidin solution was pipetted into the wells. After washing, 100 µL of TMB substrate solution was added to the wells for 30 min at 37 °C. Stop solution (50 µL) was added, and the intensity of the color was measured immediately at 450 nm.
(ELISA stands for enzyme-linked immunosorbent assay.)

For a further data set, the target named is T2, B-Raf^V600E (Homo sapiens, UniProt P15056, V600E).
T2 construct: purchased
T2 sequence (P15056 whole entry V600E): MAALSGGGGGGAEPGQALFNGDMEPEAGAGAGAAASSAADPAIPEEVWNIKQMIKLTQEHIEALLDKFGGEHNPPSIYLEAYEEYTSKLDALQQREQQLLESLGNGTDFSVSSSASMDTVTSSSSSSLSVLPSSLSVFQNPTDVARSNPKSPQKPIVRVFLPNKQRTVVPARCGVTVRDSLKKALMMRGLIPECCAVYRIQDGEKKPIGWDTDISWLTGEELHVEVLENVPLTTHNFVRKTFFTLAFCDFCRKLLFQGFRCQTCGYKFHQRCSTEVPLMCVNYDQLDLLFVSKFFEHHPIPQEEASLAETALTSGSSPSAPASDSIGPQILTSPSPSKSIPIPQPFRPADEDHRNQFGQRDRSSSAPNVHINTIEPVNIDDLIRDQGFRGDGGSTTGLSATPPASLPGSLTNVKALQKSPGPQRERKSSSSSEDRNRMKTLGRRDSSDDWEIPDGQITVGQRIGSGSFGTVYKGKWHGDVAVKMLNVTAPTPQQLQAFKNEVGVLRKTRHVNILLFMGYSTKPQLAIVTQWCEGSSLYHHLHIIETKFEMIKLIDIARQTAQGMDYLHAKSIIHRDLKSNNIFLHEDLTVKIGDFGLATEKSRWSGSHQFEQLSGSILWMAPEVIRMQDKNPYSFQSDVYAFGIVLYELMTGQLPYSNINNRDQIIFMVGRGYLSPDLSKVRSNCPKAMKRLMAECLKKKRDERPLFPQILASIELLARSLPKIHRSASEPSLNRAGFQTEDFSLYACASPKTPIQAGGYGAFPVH
The data set can be described thus: In vitro B-Raf kinase assay (ELISA). In kind it is biochemical. To be noted: n = 3, read-out: IC50 against B-Raf^V600E (converted). As for the experimental part: Raf is a protein kinase that initiates a cascade of other protein kinases by acting on the protein kinases MEK-1 and MEK-2 [21].
Next, 100 µL of standard solution and tested molecules were pipetted into the 96-wells and B-RAF was bound to the wells by the immobilized antibody. The wells were washed and biotinylated antihuman B-Raf antibody was added. After washing away unbound biotinylated antibody, 100 µL of conjugated streptavidin solution was pipetted into the wells. After washing, 100 µL of TMB substrate solution was added to the wells for 30 min at 37 °C. Stop solution (50 µL) was added, and the intensity of the color is measured immediately at 450 nm.

The test system of data set [5] is MCF-7 (breast cancer cell line). The data set can be described thus: MTT cytotoxicity assay, MCF-7. To be noted: Homo sapiens, MCF7, 24 h, 24 h treatment, mean of three experiments. The data set is classed as cell-based. The procedure: as §1, §2
The test system of data set [6] is HepG2 (hepatocellular carcinoma cell line). The data set is described as follows: MTT cytotoxicity assay, HepG2. In kind it is cell-based. As to conditions: Homo sapiens, HepG2, 24 h, 24 h treatment, mean of three experiments. As for the experimental part: as §1, §2

Turning to `CC(=O)Oc1ccccc1/C=N/n1c(-c2ccc(Cl)cc2)cn(C(C)=O)c1=S` [Compound 6, (E)-2-((3-Acetyl-5-(4-chlorophenyl)-2-thioxo-2,3-dihydro-1H-imidazol-1-ylimino)methyl)phenyl Acetate], the melting point fell in the range of 115 to 117 °C.

With `CCOC(=O)/C(C#N)=C(\c1ccc(O)cc1)n1cc(O)n(/N=C/C=C/c2ccccc2)c1=S` [compound III], the IC50 in the data set with MCF-7 cell line was 3.26 µM.

Take `COc1ccc(-c2c[nH]c(=S)n2/N=C/c2ccccc2O)cc1` [Compound 5, (E)-1-(2-Hydroxybenzylideneamino)-5-(4-methoxyphenyl)-1H-imidazole-2(3H)-thione]: the IC50 is 3.99 ± 0.3 µM in [1]; less than 5 µM in data set [1] (Homo sapiens, HCT-116, 24 h); 27.8 ± 0.31 µM in [2]; 0.252 µM at human VEGFR-2; 7.31 µM at B-Raf^V600E. In [2], the “cytotoxic effect towards MCF-10A (in words)” value was “weak cytotoxic effect”. Also, the “percentage of cells at pre-G1 phase” value in the data set on MCF-7 cells [3] is given as 22.81%. In the data set with MCF-7 cells [3], the “percentage of cell population at the G2/M phase” value stood at 25.63%. Also, the “percent of early apoptosis” value in the data set with MCF-7 cells [4] came out at 2.66%. Also, in the data set with MCF-7 cells [4], the “percent of late apoptosis” value turned out to be 13.64%.

With `CNC(=O)c1cc(Oc2ccc(NC(=O)Nc3ccc(Cl)c(C(F)(F)F)c3)cc2)ccn1` [SOR], in the data set with MCF-7 cell line, the IC50 is 1.12 µM.

For `S=c1[nH]cc(-c2ccc(Cl)cc2)n1/N=C/C=C/c1ccccc1` [Compound 4e, 5-(4-Chlorophenyl)-1-((E)-((E)-3-phenylallylidene)amino)-1H-imidazole-2(3H)-thione], the melting point lay in the range of 139 to 141 °C. In data set [5], the IC50 was 13.2 ± 0.9 µM. The same compound displayed an IC50 in data set [6] of 17 ± 1.1 µM. The compound also gave an IC50 in data set [1] (Homo sapiens, HCT-116, 24 h) of 3.99 ± 0.3 µM.

As to `S=c1[nH]cc(-c2ccc(Cl)cc2)n1/N=C/c1ccccc1` [Compound 4a, (E)-1-(Benzylideneamino)-5-(4-chlorophenyl)-1H-imidazole-2(3H)-thione], the melting point lay within 121 to 123 °C. In addition, the IC50 in data set [5] was more than 50 µM. This compound came in with an IC50 in data set [6] of 61.8 ± 4.1 µM. This compound also displayed an IC50 in data set [1] (Homo sapiens, HCT-116, 24 h) of 20.6 ± 1.4 µM.

With `Oc1ccc(Br)cc1/C=N/n1c(-c2ccc(Cl)cc2)c[nH]c1=S` [Compound 4c, (E)-1-(5-Bromo-2-hydroxybenzylideneamino)-5-(4-chlorophenyl)-1H-imidazole-2(3H)-thione], the melting point is 191 to 193 °C. The IC50 in data set [5] stood at 44 ± 2.9 µM. In data set [6], this compound returned an IC50 of 11.4 ± 0.8 µM. Besides, half-maximal inhibition in [1] (Homo sapiens, HCT-116, 24 h) (IC50) was put at 9.96 ± 0.7 µM.

Regarding `COc1ccc(/C=N/n2c(-c3ccc(Cl)cc3)c[nH]c2=S)cc1` [Compound 4d, (E)-5-(4-Chlorophenyl)-1-(4-methoxybenzylideneamino)-1H-imidazole-2(3H)-thione], the IC50 was 7.97 ± 0.5 µM in data set [5]; 4.09 ± 0.3 µM in [6]; 28.9 ± 1.9 µM in [1] (Homo sapiens, HCT-116, 24 h); 44.06 ± 0.23 µM in data set [2]; 0.721 µM on human VEGFR-2; 38 µM on B-Raf^V600E. In addition, in data set [2], the “cytotoxic effect towards MCF-10A (in words)” value is “weak cytotoxic effect”. Moreover, the “percentage of cells at pre-G1 phase” value with MCF-7 cells [3] was 22.36%. Besides, the “percentage of cell population at the G2/M phase” value in the data set on MCF-7 cells [3] is 35.55%. Also, in the data set with MCF-7 cells [4], the “percent of early apoptosis” value was 6.12%. Moreover, the “percent of late apoptosis” value in the data set on MCF-7 cells [4] amounted to 10.23%.

For `Oc1ccccc1/C=N/n1c(-c2ccc(Cl)cc2)c[nH]c1=S` [Compound 4b, (E)-5-(4-Chlorophenyl)-1-(2-hydroxybenzylideneamino)-1H-imidazole-2(3H)-thione], the melting point lay within 128 to 130 °C. In addition, in data set [5], the IC50 was determined as 24.9 ± 1.6 µM. The compound further had an IC50 in data set [6] of more than 50 µM. In [1] (Homo sapiens, HCT-116, 24 h), this compound registered an IC50 of 23.5 ± 1.6 µM.

On to `CC(=O)O[C@@]12CO[C@@H]1C[C@H](O)[C@@]1(C)C(=O)[C@H](O)C3=C(C)[C@@H](OC(=O)[C@H](O)[C@@H](NC(=O)OC(C)(C)C)c4ccccc4)C[C@@](O)([C@@H](OC(=O)c4ccccc4)[C@H]21)C3(C)C` [DOC, Docetaxel, reference compound], for which the IC50 came to 11.1 ± 0.7 µM in data set [5]; 8.13 ± 0.5 µM in data set [6]; 14 ± 0.9 µM in [1] (Homo sapiens, HCT-116, 24 h); 33.17 ± 0.19 µM in [2].

What is called melting point is the temperature of the solid-liquid transition. In general, IC50 refers to the point on the concentration scale where inhibition reaches its midpoint.
